Test results: publication PMC6976901 (Toxicology Reports, 2020)
Where two headings read alike, the source gives them in different places.

Assays:
in vitro = details: human, Caco-2
liver (hepatotoxicity) = details: Hazard Evaluation Support System Integrated Platform, cited from earlier work
[1] = fraction absorbed, oral; cited from earlier work

Row | Compound | Papp (in vitro) [×10⁻⁶ cm/s] | hepatic NOEL (liver (hepatotoxicity); Table 1) [mg/kg/day] | hepatic NOEL (liver (hepatotoxicity); Table 2) [mg/kg/day] | reported human Fa [1]
1 | Cc1cccc(N)c1C [2,3-dimethylaniline] | 62.4 ± 3 | 12 | – | –
2 | Cc1ccc(N)c(C)c1 [2,4-dimethylaniline] | 66.1 ± 2 | 2 | – | –
3 | Nc1ccccc1-c1ccccc1 [2-aminobiphenyl] | 57.6 ± 1.1 | 100 | – | –
4 | Nc1ccccc1Cl [2-chloroaniline] | 89.3 ± 2.6 | – | – | –
5 | Oc1ccccc1Cl [2-chlorophenol] | 75.2 ± 8.3 | – | 200 | –
6 | Oc1nc2ccccc2[nH]1 [2-hydroxybenzimidazole] | 50.7 ± 1.6 | – | – | –
7 | Oc1ccccc1-c1ccccc1 [2-hydroxybiphenyl] | 33.4 ± 2.9 | – | – | –
8 | Sc1nc2ccccc2[nH]1 [2-mercaptobenzimidazole] | 67.3 ± 1.8 | 2 | – | –
9 | Sc1ncc[nH]1 [2-mercaptoimidazole] | 9.1 ± 0.3 | – | – | –
10 | COc1cc([N+](=O)[O-])ccc1N [2-methoxy-4-nitroaniline] | 55.2 ± 7 | – | 100 | –
11 | Cc1ccc(N)cc1C [3,4-dimethylaniline] | 54.1 ± 5.8 | 50 | – | –
12 | Cc1cc(C)cc(N)c1 [3,5-dimethylaniline] | 67.4 ± 11.3 | 10 | – | –
13 | Nc1cccc(S(=O)(=O)O)c1 [3-aminobenzenesulfonic acid] | 2.1 ± 0.3 | – | – | –
14 | Nc1cccc(O)c1 [3-aminophenol] | 51.3 ± 2.3 | – | – | –
15 | N#Cc1cccnc1 [3-cyanopyridine] | 56.9 ± 7 | 5 | – | –
16 | CCc1cccc(O)c1 [3-ethylphenol] | 51.5 ± 5 | – | 300 | –
17 | Oc1cccc(-c2ccccc2)c1 [3-hydroxybiphenyl] | 28.4 ± 2.2 | – | – | –
18 | Nc1cccc([N+](=O)[O-])c1 [3-nitroaniline] | 52 ± 5 | 15 | – | –
19 | Cc1cc(Cl)ccc1O [4-chloro-o-cresol] | 75.4 ± 3.9 | – | 250 | –
20 | Oc1ccc(Cl)cc1 [4-chlorophenol] | 43.1 ± 3.7 | – | – | –
21 | CCc1ccc(O)cc1 [4-ethylphenol] | 43.7 ± 2.3 | – | 100 | –
22 | Oc1ccc(-c2ccccc2)cc1 [4-hydroxybiphenyl] | 44.1 ± 2.8 | – | – | –
23 | CCC(C)c1ccc(O)cc1 (stereo not shown) [4-sec-butylphenol] | 40.2 ± 1.9 | – | – | –
24 | CC(C)(c1ccccc1)c1ccc(O)cc1 [4-α-cumylphenol] | 19.5 ± 3.4 | – | 100 | –
25 | Cc1cc(N)c(S(=O)(=O)O)cc1Cl [5-amino-2-chlorotoluene-4-sulfonic acid] | 2 ± 0.2 | 1000 | – | –

Row | Compound | Papp (in vitro) [×10⁻⁶ cm/s] | hepatic NOEL (liver (hepatotoxicity); Table 1) [mg/kg/day] | hepatic NOEL (liver (hepatotoxicity); Table 2) [mg/kg/day] | reported human Fa [1]
26 | CCOc1ccc2ccc(=O)oc2c1 [7-ethoxycoumarin] | 75 ± 4.8 | – | – | –
27 | O=c1ccc2ccc(O)cc2o1 [7-hydroxycoumarin] | 103 ± 17 | – | – | –
28 | CN(C)c1ccccc1 [N,N-dimethylaniline] | 99.9 ± 12.9 | – | – | –
29 | CCNc1ccccc1 [N-ethylaniline] | 66 ± 1 | 5 | – | –
30 | CNc1ccccc1 [N-methylaniline] | 46.3 ± 5 | 5 | – | –
31 | Nc1ccccc1 [aniline] | 54.4 ± 2.6 | – | – | –
32 | CC(C)NCC(O)COc1ccc(CC(N)=O)cc1 (stereo not shown) [atenolol] | – | – | – | 50 [7] %
33 | CNCC[C@@H](Oc1ccccc1C)c1ccccc1 [atomoxetine, reference compound] | 2.7 ± 0.1 | – | – | 100 [8] %
34 | COP(=O)(OC)SCn1c(=O)oc2cc(Cl)cnc21 [azamethiphos] | 40.2 ± 1.8 | – | – | –
35 | c1ccc2[nH]cnc2c1 [benzimidazole] | 73 ± 0.6 | – | – | –
36 | O=C(O)c1ccccc1 [benzoic acid] | 149 ± 16 | – | – | –
37 | CN(C)CCCOc1nn(Cc2ccccc2)c2ccccc12 [benzydamine, reference compound] | 1.6 ± 0.1 | – | – | –
38 | CC(C)(c1ccc(O)cc1)c1ccc(O)cc1 [bisphenol A] | 32.1 ± 1.3 | 200 | – | –
39 | CN/C(=N/CCSCc1nc[nH]c1C)NC#N [cimetidine, reference compound] | 1.7 ± 0.2 | – | – | 68 [7] %
40 | CN1C(=O)CC[C@H]1c1cccnc1 [cotinine] | 41.2 ± 2.9 | – | – | 90 [8] %
41 | [H]/N=C(/N)c1ccc(NCc2nc3cc(C(=O)N(CCC(=O)O)c4ccccn4)ccc3n2C)cc1 [dabigatran, reference compound] | 3.8 ± 1.7 | – | – | –
42 | C[C@@H]1C[C@H]2[C@@H]3CCC4=CC(=O)C=C[C@]4(C)[C@@]3(F)[C@@H](O)C[C@]2(C)[C@@]1(O)C(=O)CO [dexamethasone, reference compound] | 9.5 ± 1.4 | – | – | 90 [8] %
43 | O=C(O)Cc1ccccc1Nc1c(Cl)cccc1Cl [diclofenac, reference compound] | 75.6 ± 0.6 | – | – | 82 [25] %
44 | COc1ccc2c3c1O[C@H]1[C@@H](O)CC[C@H]4[C@@H](C2)N(C)CC[C@@]341 [dihydrocodeine, reference compound] | 2.4 ± 0.1 | – | – | –
45 | c1ccc(Nc2ccccc2)cc1 [diphenylamine] | 15.1 ± 1.1 | – | – | –
46 | CC(C)N(CCC(C(N)=O)(c1ccccc1)c1ccccn1)C(C)C (stereo not shown) [disopyramide, reference compound] | 1.4 ± 0.3 | – | – | 83 [7] %
47 | O=C(O)CNC(=O)c1ccccc1 [hippuric acid] | 0.6 ± 0.1 | – | – | –
48 | COc1ccc(C(=O)NCc2ccc(OCCN(C)C)cc2)cc1OC [itopride, reference compound] | 1.2 ± 0.3 | – | – | –
49 | Nc1cccc2c1CN(C1CCC(=O)NC1=O)C2=O (stereo not shown) [lenalidomide, reference compound] | 0.7 ± 0.1 | – | – | 90 [26] %
50 | CC[C@H](C)C(=O)O[C@H]1C[C@@H](C)C=C2C=C[C@H](C)[C@H](CC[C@@H]3C[C@@H](O)CC(=O)O3)[C@H]21 [lovastatin, reference compound] | 2.1 ± 0.1 | – | – | 31 [7] %

Row | Compound | Papp (in vitro) [×10⁻⁶ cm/s] | hepatic NOEL (liver (hepatotoxicity); Table 1) [mg/kg/day] | hepatic NOEL (liver (hepatotoxicity); Table 2) [mg/kg/day] | reported human Fa [1]
51 | Cc1cccc(O)c1 [m-cresol] | 85.1 ± 3.5 | 100 | – | –
52 | Cc1cccc(Nc2ccccc2C(=O)O)c1C [mefenamic acid, reference compound] | 180 ± 8.3 | – | – | –
53 | CN(Cc1cnc2nc(N)nc(N)c2n1)c1ccc(C(=O)N[C@@H](CCC(=O)O)C(=O)O)cc1 [methotrexate, reference compound] | 1.1 ± 0.2 | – | – | 20 [24] %
54 | COCCc1ccc(OCC(O)CNC(C)C)cc1 (stereo not shown) [metoprolol, reference compound] | 3.4 ± 0.1 | – | – | –
55 | Cc1ncc2n1-c1ccc(Cl)cc1C(c1ccccc1F)=NC2 [midazolam, reference compound] | 31.8 ± 1.9 | – | – | 60 [28] %
56 | CN1CCN2c3ncccc3Cc3ccccc3C2C1 (stereo not shown) [mirtazapine, reference compound] | 4.6 ± 0.3 | – | – | –
57 | CCCCOC(=O)c1ccccc1C(=O)O [monobutyl phthalate] | 31.8 ± 0.8 | – | – | –
58 | CN1CCC[C@H]1c1cccnc1 [nicotine, reference compound] | 5.7 ± 0.6 | – | – | 100 [8] %
59 | Cc1ccccc1O [o-cresol] | 90.5 ± 6.4 | – | – | –
60 | Cc1cc2c(s1)Nc1ccccc1N=C2N1CCN(C)CC1 [olanzapine, reference compound] | 3.5 ± 0.3 | – | – | –
61 | COc1ccc2[nH]c([S+]([O-])Cc3ncc(C)c(OC)c3C)nc2c1 (stereo not shown) [omeprazole, reference compound] | – | – | – | 95 [7] %
62 | Nc1ccc(C(=O)O)cc1 [p-aminobenzoic acid] | 58.7 ± 4 | – | – | –
63 | Cc1ccc(O)cc1 [p-cresol] | 50.7 ± 4.5 | – | – | –
64 | O=C(O)c1ccc(O)cc1 [p-hydroxybenzoic acid] | 60.9 ± 3 | – | – | –
65 | O=C1NC(=O)c2ccccc21 [phthalimide] | 93.3 ± 6.9 | – | – | –
66 | Nc1cccc2c1C(=O)N(C1CCC(=O)NC1=O)C2=O (stereo not shown) [pomalidomide, reference compound] | 46.6 ± 5.7 | – | – | 73 [29] %
67 | CC[C@H](C)C(=O)O[C@H]1C[C@H](O)C=C2C=C[C@H](C)[C@H](CC[C@@H](O)C[C@@H](O)CC(=O)O)[C@H]21 [pravastatin, reference compound] | 0.9 ± 0.1 | – | – | 13 [31] %
68 | CC(=O)[C@H]1CC[C@H]2[C@@H]3CCC4=CC(=O)CC[C@]4(C)[C@H]3CC[C@]12C [progesterone, reference compound] | 11.3 ± 2 | – | – | –
69 | CC(C)NCC(O)COc1cccc2ccccc12 (stereo not shown) [propranolol, reference compound] | 2.9 ± 0.3 | – | – | –
70 | N#Cc1ccc(C#N)cc1 [terephthalonitrile] | 57.3 ± 1.3 | 20 | – | –
71 | O=C1CCC(N2C(=O)c3ccccc3C2=O)C(=O)N1 (stereo not shown) [thalidomide, reference compound] | 23.5 ± 1.9 | – | – | –
72 | CCCCNC(=O)NS(=O)(=O)c1ccc(C)cc1 [tolbutamide, reference compound] | 122 ± 11 | – | – | –
73 | CC(=O)CC(c1ccccc1)c1c(O)c2ccccc2oc1=O (stereo not shown) [warfarin, reference compound] | 121 ± 5 | – | – | –
